Source: patent US11427561B2, “IRAK4 inhibiting agents” (BIOGEN MA INC., priority 2016, dated 2022)
Counter-ions that a name gives are not always drawn.

How the values were obtained:
IRAK4 = IRAK4 (Homo sapiens (Human), UniProt Q9NWZ3); assay: IRAK-4 biochemical assay, AlphaScreen format (phosphorylation of a biotin labeled peptide); settings: 1 nM IRAK4, 1.6 μM peptide, 1 mM ATP, 3.5 h at RT
Procedure: Biochemical Assay: The biochemical assay is in a AlphaScreen format. The kinase reaction is based on the IRAK-4 phosphorylation of a biotin labeled peptide. The phosphopeptide is incubated with anti-phosphothreonine antibody as well as streptavidin- and protein A-coated beads. Binding of the protein-A coated beads to the antibody and the streptavidin beads to the peptide, leads to an energy transfer from one bead to the other, ultimately producing a luminescent/fluorescent signal.
Generally, the kinase reaction is carried out at 1 nM IRAK4, 1.6 μM peptide, 1 mM ATP in reaction buffer 50 mM Hepes, 60 mM NaCl, 5 mM MgCl2, 0.25 mM MnCl2, 2 mM DTT, 0.01% BSA, 0.01% Tween-20) for 3.5 h at RT.
The compounds described herein were tested for in the above biochemical assay.

A549 cells = assay: Cell-based assay: IL-6 ELISA quantification in A549 cells stimulated with human IL-1beta; settings: 2 ng/ml human IL-1beta overnight
Procedure: Cell-based Assay: The cell-based assays is based on IL-6 ELISA quantification. Briefly, A549 cells are cultured in DMEM with 10% FBS medium. When cells reach 80% confluence they are trypsin treated and seeded 180 ul/well in 96-well plate at 2.5×10^4 cells/well. Then, 20 ul of compound serial dilutions (starting at 10 uM, 10 points) are added to the cell plate; incubate for 30 min at 37 C and stimulated with 2 ng/ml human IL-1beta 37 C, 5% CO2 overnight. The next day 100 ul of cell supernatant per well are analyzed on a Human IL-6 Quantikine ELISA kit from R&D Systems.
The compounds described herein were tested for in the above biochemical and cell-based assays.

Chain of IRAK4 (Q9NWZ3 whole entry, species assumed): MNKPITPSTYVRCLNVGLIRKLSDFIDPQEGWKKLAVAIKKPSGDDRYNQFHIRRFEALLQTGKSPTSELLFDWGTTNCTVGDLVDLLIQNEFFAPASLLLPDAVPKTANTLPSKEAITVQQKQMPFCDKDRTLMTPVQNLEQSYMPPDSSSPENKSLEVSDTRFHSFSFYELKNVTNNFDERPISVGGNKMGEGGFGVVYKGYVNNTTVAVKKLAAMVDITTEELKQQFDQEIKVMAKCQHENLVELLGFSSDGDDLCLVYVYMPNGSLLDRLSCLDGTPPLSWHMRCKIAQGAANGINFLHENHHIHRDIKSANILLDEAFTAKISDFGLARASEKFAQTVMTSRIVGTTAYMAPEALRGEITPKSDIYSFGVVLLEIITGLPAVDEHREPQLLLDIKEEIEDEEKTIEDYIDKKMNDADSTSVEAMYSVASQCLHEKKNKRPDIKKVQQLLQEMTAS

Row | Compound | IC50 (IRAK4) [nM] | EC50 (A549 cells; A549 cells) [nM] | EC50 (A549 cells; Homo sapiens, A549, A549 cells) [nM]
1 | CCc1ccnc(-n2ncc3ccc(-c4cccc([C@@H](N)[C@H]5C[C@@H](O)C5)n4)cc32)n1 [Compound 11, (1R,3S)-3-((S)-amino(6-(1-(4-ethylpyrimidin-2-yl)-1H-indazol-6-yl)pyridin-2-yl)methyl)cyclobutanol] | 100 to 1000 |  | ≤ 1000
2 | N[C@H](c1cccc(-c2ccc3cnn(-c4cccc(C(F)F)n4)c3c2)n1)[C@H]1C[C@@H](O)C1 [Compound 14, cis-3-((S)-amino(6-(1-(6-(difluoromethyl)pyridin-2-yl)-1H-indazol-6-yl)pyridin-2-yl)methyl)cyclobutanol] | ≤ 100 |  | ≤ 1000
3 | CCc1cncc(-n2ncc3ccc(-c4cccc([C@@H](N)[C@H]5C[C@@H](O)C5)n4)cc32)n1 [Compound 15, (1R,3s)-3-((S)-amino(6-(1-(6-ethylpyrazin-2-yl)-1H-indazol-6-yl)pyridin-2-yl)methyl)cyclobutanol] | ≤ 100 |  | ≤ 1000
4 | N[C@H](c1cccc(-c2ccc3cnn(-c4cccc(CF)n4)c3c2)n1)[C@H]1C[C@@H](O)C1 [Compound 16, (1R,3s)-3-((S)-amino(6-(1-(6-(fluoromethyl)pyridin-2-yl)-1H-indazol-6-yl)pyridin-2-yl)methyl)cyclobutanol] | ≤ 100 |  | ≤ 1000
5 | N[C@H](c1cncc(-c2ccc3cnn(-c4cccc(CO)n4)c3c2)n1)[C@H]1C[C@@H](O)C1 [Compound 17, cis-3-((S)-amino(6-(1-(6-(hydroxymethyl)pyridin-2-yl)-1H-indazol-6-yl)pyrazin-2-yl)methyl)cyclobutanol] | ≤ 100 |  | ≤ 1000
6 | N[C@H](c1cccc(-c2cc(OCC(F)F)c3cnn(-c4cccc(CO)n4)c3c2)n1)[C@H]1C[C@@H](O)C1 [Compound 24, (1R,3s)-3-((S)-amino(6-(4-(2,2-difluoroethoxy)-1-(6-(hydroxymethyl)pyridin-2-yl)-1H-indazol-6-yl)pyridin-2-yl)methyl)cyclobutanol] | ≤ 100 |  | ≤ 1000
7 | CC(O)c1ccnc(-n2ncc3ccc(-c4cccc([C@@H](N)[C@H]5C[C@@H](O)C5)n4)cc32)n1 (stereo partly drawn) [Compound 25, (1R,3s)-3-((1S)-amino(6-(1-(4-(1-hydroxyethyl)pyrimidin-2-yl)-1H-indazol-6-yl)pyridin-2-yl)methyl)cyclobutanol] | ≤ 100 |  | 1000 to 10000
8 | N[C@H](c1cccc(-c2ccc3cnn(-c4cccc(CO)n4)c3c2)n1)C1CC(F)(F)C1 [Compound 26, (S)-(6-(6-(6-(amino(3,3-difluorocyclobutyl)methyl)pyridin-2-yl)-1H-indazol-1-yl)pyridin-2-yl)methanol] | ≤ 100 |  | ≤ 1000
9 | N[C@@H](c1cccc(-c2ccc3cnn(-c4cccc(CO)n4)c3c2)n1)C1CC(F)(F)C1 [Compound 27, (R)-(6-(6-(6-(amino(3,3-difluorocyclobutyl)methyl)pyridin-2-yl)-1H-indazol-1-yl)pyridin-2-yl)methanol] | ≤ 100 |  | ≤ 1000
10 | N[C@H](c1cccc(-c2ccc3cnn(-c4nccc(CO)n4)c3c2)n1)C1CC(F)(F)C1 [Compound 28, (S)-(2-(6-(6-(amino(3,3-difluorocyclobutyl)methyl)pyridin-2-yl)-1H-indazol-1-yl)pyrimidin-4-yl)methanol] | ≤ 100 |  | ≤ 1000
11 | N[C@H](c1cccc(-c2ccc3cnn(-c4cccc(CF)n4)c3c2)n1)C1CC(F)(F)C1 [Compound 29, (S)-(3,3-difluorocyclobutyl)(6-(1-(6-(fluoromethyl)pyridin-2-yl)-1H-indazol-6-yl)pyridin-2-yl)methanamine] | ≤ 100 |  | ≤ 1000
12 | N[C@H](c1cccc(-c2ccc3cnn(-c4cccc(C(F)F)n4)c3c2)n1)C1CC(F)(F)C1 [Compound 30, (S)-(3,3-difluorocyclobutyl)(6-(1-(6-(difluoromethyl)pyridin-2-yl)-1H-indazol-6-yl)pyridin-2-yl) methanamine] | ≤ 100 |  | ≤ 1000
13 | CCOc1cc(-c2cccc([C@H](N)C3CC(F)(F)C3)n2)cc2c1cnn2-c1cccc(CO)n1 [Compound 33, (R)-(6-(6-(6-(amino(3,3-difluorocyclobutyl)methyl)pyridin-2-yl)-4-ethoxy-1H-indazol-1-yl)pyridin-2-yl)methanol] | ≤ 100 |  | ≤ 1000
14 | CCOc1cc(-c2cccc([C@@H](N)C3CC(F)(F)C3)n2)cc2c1cnn2-c1cccc(CO)n1 [Compound 34, (S)-(6-(6-(6-(amino(3,3-difluorocyclobutyl)methyl)pyridin-2-yl)-4-ethoxy-1H-indazol-1-yl)pyridin-2-yl)methanol] | ≤ 100 |  | ≤ 1000
15 | N[C@H](c1cccc(-c2ccc3cnn(-c4cccc(C(F)F)n4)c3c2)n1)C1CC(O)C1 (stereo partly drawn) [Compound 35a, 3-((S)-amino(6-(1-(6-(difluoromethyl)pyridin-2-yl)-1H-indazol-6-yl)pyridin-2-yl)methyl)cyclobutan-1-ol] | ≤ 100 |  | ≤ 1000

Continued, values first:

Row | IC50 (IRAK4) [nM] | EC50 (A549 cells; A549 cells) [nM] | EC50 (A549 cells; Homo sapiens, A549, A549 cells) [nM] | Compound
16 | ≤ 100 | ≤ 1000 |  | NC(c1cccc(-c2ccc3cnn(-c4cccc(CO)n4)c3c2)n1)C1CCC(O)C1 (single isomer, unassigned) [Compound 23, 3-(amino(6-(1-(6-(hydroxymethyl)pyridin-2-yl)-1H-indazol-6-yl)pyridin-2-yl)methyl)cyclopentanol-C]
17 | ≤ 100 |  | ≤ 1000 | N[C@H](c1cccc(-c2ccc3cnn(-c4cccc(CO)n4)c3c2)n1)C1CC(CO)C1 (stereo partly drawn) [Compound 1, (S)-(6-(6-(6-(amino(3-(hydroxymethyl)cyclobutyl)methyl)pyridin-2-yl)-1H-indazol-1-yl)pyridin-2-yl)methanol]
18 | ≤ 100 |  | ≤ 1000 | N[C@@H](c1cccc(-c2ccc3cnn(-c4cccc(CO)n4)c3c2)n1)C1CC(CO)C1 (stereo partly drawn) [Compound 2, (R)-(6-(6-(6-(amino(3-(hydroxymethyl)cyclobutyl)methyl)pyridin-2-yl)-1H-indazol-1-yl)pyridin-2-yl)methanol]
19 | ≤ 100 |  | ≤ 1000 | N[C@H](c1cccc(-c2ccc3cnn(-c4cccc(CO)n4)c3c2)n1)[C@H]1C[C@@H](O)C1 [Compound 4, cis-3-((S)-amino(6-(1-(6-(hydroxymethyl)pyridin-2-yl)-1H-indazol-6-yl)pyridin-2-yl)methyl)cyclobutanol]
20 | ≤ 100 |  | ≤ 1000 | N[C@@H](c1cccc(-c2ccc3cnn(-c4cccc(CO)n4)c3c2)n1)[C@H]1C[C@@H](O)C1 [Compound 5, (cis)-3-((R)-amino(6-(1-(6-(hydroxymethyl)pyridin-2-yl)-1H-indazol-6-yl)pyridin-2-yl)methyl)cyclobutan-1-ol hydrochloride]
21 | ≤ 100 |  | ≤ 1000 | N[C@H](c1cccc(-c2ccc3cnn(-c4cccc(CO)n4)c3c2)n1)[C@H]1C[C@H](O)C1 [Compound 6, trans-3-((S)-amino(6-(1-(6-(hydroxymethyl)pyridin-2-yl)-1H-indazol-6-yl)pyridin-2-yl)methyl)cyclobutanol]
22 | ≤ 100 |  | ≤ 1000 | N[C@@H](c1cccc(-c2ccc3cnn(-c4cccc(CO)n4)c3c2)n1)[C@H]1C[C@H](O)C1 [Compound 7, trans-3-((R)-amino(6-(1-(6-(hydroxymethyl)pyridin-2-yl)-1H-indazol-6-yl)pyridin-2-yl)methyl)cyclobutanol]
23 | ≤ 100 |  | ≤ 1000 | N[C@H](c1cccc(-c2ccc3cnn(-c4nccc(CO)n4)c3c2)n1)[C@H]1C[C@@H](O)C1 [Compound 8, (1R,3S)-3-((S)-amino(6-(1-(4-(hydroxymethyl)pyrimidin-2-yl)-1H-indazol-6-yl)pyridin-2-yl)methyl)cyclobutanol]
24 | ≤ 100 |  | ≤ 1000 | N[C@H](c1cccc(-c2ccc3cnn(-c4cncc(CO)n4)c3c2)n1)[C@H]1C[C@@H](O)C1 [Compound 9, cis 3-((S)-amino(6-(1-(6-(hydroxymethyl)pyrazin-2-yl)-1H-indazol-6-yl)pyridin-2-yl)methyl)cyclobutanol]
25 | ≤ 100 |  | ≤ 1000 | N[C@H](c1cccc(-c2ccc3cnn(-c4cccc(C(F)(F)F)n4)c3c2)n1)[C@H]1C[C@@H](O)C1 [Compound 10, (1R,3S)-3-((S)-amino(6-(1-(6-(trifluoromethyl)pyridin-2-yl)-1H-indazol-6-yl)pyridin-2-yl)methyl)cyclobutanol]
26 | ≤ 100 |  | 1000 to 10000 | CCc1cccc(-n2ncc3ccc(-c4cccc([C@@H](N)[C@H]5C[C@@H](O)C5)n4)cc32)n1 [Compound 12, (1R,3s)-3-((S)-amino(6-(1-(6-ethylpyridin-2-yl)-1H-indazol-6-yl)pyridin-2-yl)methyl)cyclobutanol]
27 | ≤ 100 |  | ≤ 1000 | N[C@H](c1cccc(-c2ccc3cnn(-c4nccc(C(F)(F)F)n4)c3c2)n1)[C@H]1C[C@@H](O)C1 [Compound 13, (1R,3s)-3-((S)-amino(6-(1-(4-(trifluoromethyl)pyrimidin-2-yl)-1H-indazol-6-yl)pyridin-2-yl)methyl)cyclobutanol]
